According to publication PMC4809247 (Journal of medicinal chemistry, 2015):

Columns and labels:
[1] = Intrinsic clearance in rat liver microsomes; assay type: in vitro ADME; settings: predicted hepatic clearance based on intrinsic clearance in rat liver microsomes
rat mGlu3 = rat mGlu3 (Rattus norvegicus, UniProt P31422); settings: calcium mobilization; average of n ≥ 3
rat mGlu5 = rat mGlu5 (Rattus norvegicus, UniProt P31424); assay: Calcium mobilization mGlu5 assay; assay type: cell-based; settings: for mGlu5 pEC50 (± SEM): calcium mobilization, average of n ≥ 3 (n = 2 where marked)
Sequence of rat mGlu5 (P31424 21-1203): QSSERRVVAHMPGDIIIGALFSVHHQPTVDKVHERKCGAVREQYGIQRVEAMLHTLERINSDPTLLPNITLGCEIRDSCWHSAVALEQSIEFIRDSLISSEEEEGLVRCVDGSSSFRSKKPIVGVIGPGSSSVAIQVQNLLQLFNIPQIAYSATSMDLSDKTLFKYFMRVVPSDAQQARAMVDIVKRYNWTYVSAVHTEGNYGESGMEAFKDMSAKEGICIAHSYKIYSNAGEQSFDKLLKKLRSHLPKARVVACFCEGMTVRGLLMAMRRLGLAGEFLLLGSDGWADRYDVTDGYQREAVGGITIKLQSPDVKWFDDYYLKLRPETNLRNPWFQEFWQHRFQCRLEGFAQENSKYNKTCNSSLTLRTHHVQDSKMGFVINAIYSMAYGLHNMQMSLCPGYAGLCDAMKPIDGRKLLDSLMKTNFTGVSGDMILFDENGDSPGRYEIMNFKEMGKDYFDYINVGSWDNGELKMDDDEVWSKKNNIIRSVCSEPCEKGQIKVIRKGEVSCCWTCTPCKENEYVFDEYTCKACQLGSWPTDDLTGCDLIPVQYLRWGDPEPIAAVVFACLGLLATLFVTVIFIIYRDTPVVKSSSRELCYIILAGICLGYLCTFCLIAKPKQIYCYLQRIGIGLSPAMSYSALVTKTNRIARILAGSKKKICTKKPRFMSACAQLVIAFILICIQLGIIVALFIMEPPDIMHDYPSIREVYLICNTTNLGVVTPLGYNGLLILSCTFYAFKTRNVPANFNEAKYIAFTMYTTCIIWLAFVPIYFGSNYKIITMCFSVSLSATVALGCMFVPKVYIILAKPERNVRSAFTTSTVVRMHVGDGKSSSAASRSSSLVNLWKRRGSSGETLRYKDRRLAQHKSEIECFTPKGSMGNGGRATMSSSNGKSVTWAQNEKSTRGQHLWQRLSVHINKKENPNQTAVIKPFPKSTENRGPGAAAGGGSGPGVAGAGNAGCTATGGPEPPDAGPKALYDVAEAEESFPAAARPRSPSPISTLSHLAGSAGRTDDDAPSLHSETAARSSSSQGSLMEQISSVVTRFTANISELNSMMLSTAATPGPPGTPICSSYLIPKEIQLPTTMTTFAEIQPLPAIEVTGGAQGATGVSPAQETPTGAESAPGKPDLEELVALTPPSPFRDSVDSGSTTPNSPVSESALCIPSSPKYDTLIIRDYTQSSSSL

Sequence of rat mGlu3 (P31422 23-879): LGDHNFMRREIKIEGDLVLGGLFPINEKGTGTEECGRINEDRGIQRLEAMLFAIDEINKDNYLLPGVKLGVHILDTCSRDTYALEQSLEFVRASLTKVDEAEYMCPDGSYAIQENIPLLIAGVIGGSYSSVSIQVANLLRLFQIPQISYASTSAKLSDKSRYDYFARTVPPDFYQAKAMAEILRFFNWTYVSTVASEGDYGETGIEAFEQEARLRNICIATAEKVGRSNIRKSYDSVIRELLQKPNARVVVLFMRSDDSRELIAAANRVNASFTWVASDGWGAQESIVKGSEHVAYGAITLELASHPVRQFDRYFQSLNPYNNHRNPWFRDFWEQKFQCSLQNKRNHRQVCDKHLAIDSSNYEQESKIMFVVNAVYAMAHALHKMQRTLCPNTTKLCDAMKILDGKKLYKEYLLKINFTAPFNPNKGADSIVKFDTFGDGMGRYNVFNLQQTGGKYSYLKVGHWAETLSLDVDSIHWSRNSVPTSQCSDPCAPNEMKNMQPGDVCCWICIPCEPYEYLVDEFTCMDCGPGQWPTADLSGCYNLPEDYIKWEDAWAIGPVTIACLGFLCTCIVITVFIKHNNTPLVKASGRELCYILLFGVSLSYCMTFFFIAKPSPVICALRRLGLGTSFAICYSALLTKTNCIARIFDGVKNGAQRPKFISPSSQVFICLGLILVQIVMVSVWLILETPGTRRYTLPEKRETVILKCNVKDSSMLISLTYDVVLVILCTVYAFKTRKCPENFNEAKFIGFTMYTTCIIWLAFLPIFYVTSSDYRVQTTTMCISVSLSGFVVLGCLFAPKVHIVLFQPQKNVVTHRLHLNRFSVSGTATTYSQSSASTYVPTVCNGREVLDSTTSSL

Compound | mGlu3 pIC50 (± SEM) (rat mGlu3) | mGlu5 pEC50 (± SEM) (rat mGlu5) | other results
Cc1cccc(N2C[C@@H](C)n3nc(COc4ccc(F)cn4)cc3C2=O)c1 [Compound 61] | 6.67 ± 0.15 | – | rat CLhep [1]: 58.4 mL/min/kg
C[C@@H]1CN(c2ccc(F)cc2F)C(=O)c2cc(COc3ccc(Cl)cn3)nn21 [Compound 95] | 6.55 ± 0.08 | – | –
C[C@@H]1CN(c2cccnc2)C(=O)c2cc(COc3ccc(F)cn3)nn21 [Compound 70] | 6.36 ± 0.13 | – | –
Cc1ccc(N2C[C@@H](C)n3nc(COc4ccc(Cl)cn4)cc3C2=O)cc1 [Compound 87] | 6.39 ± 0.21 | – | –
C[C@@H]1CN(c2ccccc2Cl)C(=O)c2cc(COc3ccc(F)cn3)nn21 [Compound 57] | 6.85 ± 0.16 | – | rat CLhep [1]: 66.5 mL/min/kg
CCc1ccc(OCc2cc3n(n2)[C@H](C)CN(c2ccc(F)cc2)C3=O)cc1 [Compound 36] | – | 5.49 ± 0.03 | –
COc1cccnc1OCc1cc2n(n1)[C@H](C)CN(c1ccc(F)cc1)C2=O [Compound 43] | – | <4.5 | mGlu5: no activity up to the highest concentration tested (rat mGlu5): > 30 µM
C[C@@H]1CN(c2ccc(F)cc2)C(=O)c2cc(COc3ccc(OC(F)(F)F)cc3)nn21 [Compound 39] | 5.39 ± 0.04 | <4.5 | mGlu5: no activity up to the highest concentration tested (rat mGlu5): > 30 µM
Cc1ccccc1OCc1cc2n(n1)[C@H](C)CN(c1ccc(F)cc1)C2=O [Compound 26] | – | 5.83 ± 0.04 | –
Cc1ccc(OCc2cc3n(n2)[C@H](C)CN(c2ccc(F)cc2)C3=O)cc1 [Compound 28] | 5.92 ± 0.02 | 5.97 ± 0.04 | –
C[C@@H]1CN(c2ccccc2F)C(=O)c2cc(COc3ccc(F)cn3)nn21 [Compound 55] | – | – | rat CLhep [1]: 64.7 mL/min/kg
COc1ccc(N2C[C@@H](C)n3nc(COc4ccc(F)cn4)cc3C2=O)cc1 [Compound 65] | 6.49 ± 0.10 | – | –
Cc1cccc(OCc2cc3n(n2)[C@H](C)CN(c2ccc(F)cc2)C3=O)n1 [Compound 49] | 5.62 ± 0.02 | – | –
COc1cccc(N2C[C@@H](C)n3nc(COc4ccc(F)cn4)cc3C2=O)c1 [Compound 64] | 6.70 ± 0.06 | – | –
C[C@@H]1CN(c2ccccc2C#N)C(=O)c2cc(COc3ccc(Cl)cn3)nn21 [Compound 91] | 6.37 ± 0.05 | – | –
C[C@@H]1CN(c2cccc(Cl)c2)C(=O)c2cc(COc3ccc(Cl)cn3)nn21 [Compound 83] | 6.25 ± 0.07 | – | –
C[C@@H]1CN(c2ccc(F)cc2)C(=O)c2cc(COc3ccc(F)cn3)nn21 [Compound 47] | 6.27 ± 0.02 | – | –
C[C@@H]1CN(c2ccc(F)cc2)C(=O)c2cc(COc3ncccc3F)nn21 [Compound 41] | 5.96 ± 0.02 | – | –
C[C@@H]1CN(c2cccc(Cl)c2)C(=O)c2cc(COc3ccc(F)cn3)nn21 [Compound 58] | – | – | rat CLhep [1]: 51.9 mL/min/kg

Compound | mGlu3 pIC50 (± SEM) (rat mGlu3) | mGlu5 pEC50 (± SEM) (rat mGlu5) | other results
COc1cccc(OCc2cc3n(n2)[C@H](C)CN(c2ccc(F)cc2)C3=O)c1 [Compound 33] | – | 5.74 ± 0.04 | –
C[C@@H]1CN(c2ccc(F)cc2)C(=O)c2cc(COc3ccc(C#N)cc3)nn21 [Compound 37] | 6.11 ± 0.12 | 5.71 ± 0.06 | –
C[C@@H]1CN(c2ccc(F)cc2)C(=O)c2cc(COc3ccc(C(F)(F)F)cc3)nn21 [Compound 35] | 5.73 ± 0.01 | <4.5 | –
C[C@@H]1CN(c2ccc(F)cc2)C(=O)c2cc(COc3cccc(F)c3)nn21 [Compound 23] | 6.11 ± 0.03 | 7.14 ± 0.02 | –
C[C@@H]1CN(c2ncccc2C#N)C(=O)c2cc(COc3ccc(Cl)cn3)nn21 [Compound 103] | – | <4.5 | –
C[C@@H]1CN(c2cc(F)cc(F)c2)C(=O)c2cc(COc3ccc(Cl)cn3)nn21 [Compound 97] | 6.38 ± 0.07 | – | –
C[C@@H]1CN(c2ccccc2F)C(=O)c2cc(COc3ccc(Cl)cn3)nn21 [Compound 80] | 6.65 ± 0.04 | – | –
C[C@@H]1CN(c2ccc(Cl)cc2)C(=O)c2cc(COc3ccc(F)cn3)nn21 [Compound 59] | 6.71 ± 0.13 | – | –
C[C@@H]1CN(c2ccc(F)cc2)C(=O)c2cc(COc3cc(C(F)(F)F)ccn3)nn21 [Compound 45] | 5.78 ± 0.01 | – | –
C[C@@H]1CN(c2c(F)cccc2F)C(=O)c2cc(COc3ccc(F)cn3)nn21 [Compound 68] | – | – | rat CLhep [1]: 64.6 mL/min/kg
C[C@@H]1CN(c2ccc(F)cn2)C(=O)c2cc(COc3ccc(F)cn3)nn21 [Compound 72] | 6.46 ± 0.07 | – | –
C[C@@H]1CN(c2cccc(F)c2)C(=O)c2cc(COc3ccc(F)cn3)nn21 [Compound 56] | 6.72 ± 0.08 | – | rat CLhep [1]: 53.0 mL/min/kg
C[C@@H]1CN(c2ccc(F)cc2)C(=O)c2cc(COc3ccccc3F)nn21 [Compound 22] | 6.28 ± 0.20 | 6.71 ± 0.04 | –
C[C@@H]1CN(c2cccc(F)c2)C(=O)c2cc(COc3ccc(Cl)cn3)nn21 [Compound 81] | 6.69 ± 0.04 | – | –
C[C@@H]1CN(c2cccc(F)c2F)C(=O)c2cc(COc3ccc(F)cn3)nn21 [Compound 66] | 6.73 ± 0.16 | – | rat CLhep [1]: 63.6 mL/min/kg
C[C@@H]1CN(c2cc(F)ccc2F)C(=O)c2cc(COc3ccc(F)cn3)nn21 [Compound 67] | – | – | rat CLhep [1]: 49.6 mL/min/kg
C[C@@H]1CN(c2ccccc2Cl)C(=O)c2cc(COc3ccc(Cl)cn3)nn21 [Compound 82] | 6.48 ± 0.08 | – | –
C[C@@H]1CN(c2ccc(Cl)cc2)C(=O)c2cc(COc3ccc(Cl)cn3)nn21 [Compound 84] | 5.91 ± 0.25 | – | –
C[C@@H]1CN(c2ccc(F)cc2)C(=O)c2cc(COc3ccccc3Cl)nn21 [Compound 29] | 6.27 ± 0.18 | – | –

Compound | mGlu3 pIC50 (± SEM) (rat mGlu3) | mGlu5 pEC50 (± SEM) (rat mGlu5) | other results
Cc1ccccc1N1C[C@@H](C)n2nc(COc3ccc(Cl)cn3)cc2C1=O [Compound 85] | 6.24 ± 0.18 | – | –
C[C@@H]1CN(c2ccc(C#N)cc2)C(=O)c2cc(COc3ccc(Cl)cn3)nn21 [Compound 93] | 6.27 ± 0.05 | – | –
COc1ccnc(OCc2cc3n(n2)[C@H](C)CN(c2ccc(F)cc2)C3=O)c1 [Compound 46] | 5.43 ± 0.00 | – | –
C[C@@H]1CN(c2ccc(F)cc2)C(=O)c2cc(COc3ccccc3)nn21 [Compound 18] | 6.57 ± 0.15 | 7.34 ± 0.02 | fold preference for mGlu5 vs mGlu3 activity (rat mGlu5): ~6 fold
COc1ccccc1OCc1cc2n(n1)[C@H](C)CN(c1ccc(F)cc1)C2=O [Compound 32] | 5.59 ± 0.18 | – | –
CCOc1ccc(OCc2cc3n(n2)[C@H](C)CN(c2ccc(F)cc2)C3=O)cc1 [Compound 38] | 5.94 ± 0.06 | <4.5 | mGlu5: no activity up to the highest concentration tested (rat mGlu5): > 30 µM
C[C@@H]1CN(c2ccc(F)cc2)C(=O)c2cc(COc3ccc(F)cc3F)nn21 [Compound 25] | 6.38 ± 0.22 | 6.51 ± 0.05 | –
C[C@@H]1CN(c2ccc(F)cc2)C(=O)c2cc(COc3ncccc3C(F)(F)F)nn21 [Compound 42] | – | <4.5 | mGlu5: no activity up to the highest concentration tested (rat mGlu5): > 30 µM
Cc1ccnc(OCc2cc3n(n2)[C@H](C)CN(c2ccc(F)cc2)C3=O)c1 [Compound 44] | 5.68 ± 0.01 | – | –
C[C@@H]1CN(c2cccc(C#N)c2)C(=O)c2cc(COc3ccc(Cl)cn3)nn21 [Compound 92] | 6.08 ± 0.26 | – | –
C[C@@H]1CN(c2cccc(F)n2)C(=O)c2cc(COc3ccc(Cl)cn3)nn21 [Compound 105] | 6.53 ± 0.08 | – | –
C[C@@H]1CN(c2ccncc2)C(=O)c2cc(COc3ccc(F)cn3)nn21 [Compound 71] | 6.05 ± 0.04 | <4.5 | –
C[C@@H]1CN(c2cc(F)ccc2C#N)C(=O)c2cc(COc3ccc(Cl)cn3)nn21 [Compound 98] | 6.28 ± 0.06 | <4.5 | mGlu5: no activity up to the highest concentration tested (rat mGlu5): > 30 µM
C[C@@H]1CN(c2ccc(F)cc2)C(=O)c2cc(COc3cccc(C(F)(F)F)n3)nn21 [Compound 50] | 5.63 ± 0.02 | <4.5 | mGlu5: no activity up to the highest concentration tested (rat mGlu5): > 30 µM
Cc1cccc(N2C[C@@H](C)n3nc(COc4ccc(Cl)cn4)cc3C2=O)c1 [Compound 86] | 6.41 ± 0.05 | – | –
COc1cccc(N2C[C@@H](C)n3nc(COc4ccc(Cl)cn4)cc3C2=O)c1 [Compound 89] | 6.50 ± 0.05 | – | –
C[C@@H]1CN(c2ncccc2F)C(=O)c2cc(COc3ccc(Cl)cn3)nn21 [Compound 102] | 6.44 ± 0.03 | – | –
COc1ccc(OCc2cc3n(n2)[C@H](C)CN(c2ccc(F)cc2)C3=O)cc1 [Compound 34] | 5.98 ± 0.02 | 5.87 ± 0.16 | –
C[C@@H]1CN(c2ccc(F)cn2)C(=O)c2cc(COc3ccc(Cl)cn3)nn21 [Compound 104] | 6.59 ± 0.09 | – | –
